The values that follow come from US8546608B2, “Proteasome inhibitors and methods of using the same” (Cephalon, Inc., priority 2003, dated 2013).

The target in experiment [1] is T1, 20S Human Erythrocyte Proteasome (HEP) (Homo sapiens, UniProt P20618+P28074).
T1 construct: 20S Human Erythrocyte Proteasome (HEP), purchased from Immatics Biotechnologies Inc; purchased Immatics Biotechnologies Inc., Tübingen, Germany; host or cells: human erythrocytes (natural source)
Briefly: Chymotrypsin-like activity of 20S Human Erythrocyte Proteasome (HEP), IC50 determination. It is filed as biochemical. The note with it: assay of Example C, inhibition of HEP. A digest of the protocol: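 20S proteasome at 0.2 μg/mL (about 0.6 nM catalytic sites) in 20 mM Tris with 0.04% SDS, preincubated 15 min at 37° C with inhibitor before Suc-LLVY-AMC (100 μM final). AMC fluorescence read in the linear range; triplicates, IC50 from concentration series.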

Experiment [2] addresses T2, proteasome in Molt-4 cells (human leukemia) (Homo sapiens, UniProt P20618+P28074).
T2 sequence (P28074 60-263): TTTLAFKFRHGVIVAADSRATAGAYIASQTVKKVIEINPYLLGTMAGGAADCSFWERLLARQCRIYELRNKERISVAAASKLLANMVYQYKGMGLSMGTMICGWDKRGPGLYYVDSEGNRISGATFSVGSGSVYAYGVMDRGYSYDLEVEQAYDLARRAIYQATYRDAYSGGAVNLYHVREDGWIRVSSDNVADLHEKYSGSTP
T2 sequence (P20618 29-241): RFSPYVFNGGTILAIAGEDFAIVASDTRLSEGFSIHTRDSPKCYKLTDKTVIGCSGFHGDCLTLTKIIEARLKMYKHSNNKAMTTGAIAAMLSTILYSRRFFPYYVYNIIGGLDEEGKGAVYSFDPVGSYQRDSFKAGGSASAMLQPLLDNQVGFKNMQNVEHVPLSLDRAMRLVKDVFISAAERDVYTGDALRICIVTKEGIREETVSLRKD
It is filed as cell-based. The note with it: assay of Example E, inhibition of MOLT4; read-out: MOLT4 (EC50). A digest of the protocol: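 Intact Molt-4 cells (6×10^6 cells/mL) in HEPES-buffered saline were preincubated with inhibitor 15 min at 37 °C, then given cell-permeable MeOSuc-FLF-AFC at 25 μM final.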

For `CCCC/C=C/C(=O)N[C@@H](CCCNC(=N)N[N+](=O)[O-])C(=O)N[C@@H](CC(C)C)B1O[C@@H]2C[C@@H]3C[C@@H](C3(C)C)[C@]2(C)O1` [D.3.66, Hept-2-enamide,N-[(1S)-1-[[[(1R)-1-[(3aS,4S,6S,7aR)-hexahydro-3a,5,5-trimethyl-4,6-methano-1,3,2-benzodioxaborol-2-yl]-3-methylbutyl]amino]carbonyl]-4-[[imino(nitroamino)methyl]amino]butyl]], in experiment [1], the IC50 is less than 10 nM. Further, the EC50 in experiment [2] is less than 200 nM.

Turning to `Cc1ccc(OCC(=O)N[C@@H](CCCNC(=N)N[N+](=O)[O-])C(=O)N[C@@H](CC(C)C)B2O[C@@H]3C[C@@H]4C[C@@H](C4(C)C)[C@]3(C)O2)cc1C` [D.3.67, 2-(3,4-Dimethylphenoxy)acetamide,N-[(1S)-1-[[[(1R)-1-[(3aS,4S,6S,7aR)-hexahydro-3a,5,5-trimethyl-4,6-methano-1,3,2-benzodioxaborol-2-yl]-3-methylbutyl]amino]carbonyl]-4-[[imino(nitroamino)methyl]amino]butyl]], the IC50 in experiment [1] was less than 10 nM. Further, in experiment [2], the EC50 is less than 200 nM.

In experiment [1], `CCCCCC/C=C/CC(=O)N[C@@H](CCCNC(=N)N[N+](=O)[O-])C(=O)N[C@@H](CC(C)C)B1O[C@@H]2C[C@@H]3C[C@@H](C3(C)C)[C@]2(C)O1` [D.3.70, (E)-Dec-3-enoic acid amide,N-[(1S)-1-[[[(1R)-1-[(3aS,4S,6S,7aR)-hexahydro-3a,5,5-trimethyl-4,6-methano-1,3,2-benzodioxaborol-2-yl]-3-methylbutyl]amino]carbonyl]-4-[[imino(nitroamino)methyl]amino]butyl]] showed an IC50 of less than 10 nM. Also, the EC50 in experiment [2] is less than 200 nM.

With `CC(C)C[C@H](NC(=O)[C@H](CCCNC(=N)N[N+](=O)[O-])NC(=O)CCCCC1CCCCC1)B1O[C@@H]2C[C@@H]3C[C@@H](C3(C)C)[C@]2(C)O1` [D.3.73], the IC50 in experiment [1] was less than 10 nM. In addition, the EC50 in experiment [2] is less than 200 nM.

As for `CC(C)=CCC[C@@H](C)CC(=O)N[C@@H](CCCNC(=N)N[N+](=O)[O-])C(=O)N[C@@H](CC(C)C)B1O[C@@H]2C[C@@H]3C[C@@H](C3(C)C)[C@]2(C)O1` [D.3.75, (3R)-3,7-Dimethyl-oct-6-enoic acid amide,N-[(1S)-1-[[[(1R)-1-[(3aS,4S,6S,7aR)-hexahydro-3a,5,5-trimethyl-4,6-methano-1,3,2-benzodioxaborol-2-yl]-3-methylbutyl]amino]carbonyl]-4-[[imino(nitroamino)methyl]amino]butyl]], the IC50 in experiment [1] was less than 10 nM. The EC50 in experiment [2] is less than 200 nM.

In turn, `CCOc1ccc(C(=O)N[C@@H](CCCNC(=N)N[N+](=O)[O-])C(=O)N[C@@H](CC(C)C)B2O[C@@H]3C[C@@H]4C[C@@H](C4(C)C)[C@]3(C)O2)cc1` [D.3.91] displayed an IC50 in experiment [1] of less than 10 nM. For the same molecule, the concentration giving a half-maximal response (EC50) in experiment [2] is less than 200 nM.

In experiment [1], `CC(C)C[C@H](NC(=O)[C@H](CCCNC(=N)N[N+](=O)[O-])NC(=O)/C=C/c1ccc(Br)cc1)B1O[C@@H]2C[C@@H]3C[C@@H](C3(C)C)[C@]2(C)O1` [D.3.92, (E)-3-(4-Bromophenyl)acrylamide,N-[(1S)-1-[[[(1R)-1-[(3aS,4S,6S,7aR)-hexahydro-3a,5,5-trimethyl-4,6-methano-1,3,2-benzodioxaborol-2-yl]-3-methylbutyl]amino]carbonyl]-4-[[imino(nitroamino)methyl]amino]butyl]] displayed an IC50 of less than 10 nM. For the same molecule, the EC50 in experiment [2] was less than 200 nM.

As to `COc1ccc2cc([C@H](C)C(=O)N[C@@H](CCCNC(=N)N[N+](=O)[O-])C(=O)N[C@@H](CC(C)C)B3O[C@@H]4C[C@@H]5C[C@@H](C5(C)C)[C@]4(C)O3)ccc2c1` [D.3.93, (2S)-2-(6-Methoxynaphthalen-2-yl)-propanamide,N-[(1S)-1-[[[(1R)-1-[(3aS,4S,6S,7aR)-hexahydro-3a,5,5-trimethyl-4,6-methano-1,3,2-benzodioxaborol-2-yl]-3-methylbutyl]amino]carbonyl]-4-[[imino(nitroamino)methyl]amino]butyl]], the concentration for half-maximal inhibition (IC50) in experiment [1] is less than 10 nM. Also, the EC50 in experiment [2] is less than 200 nM.
